{
  "source": "patent US20220064238A1",
  "about": "“Methods And Compositions For Modifying Transcription Factor Activity by Targeting The Human Mediator Complex Using Cell Penetrating Memetic Peptides And Methods of Treating Cancer Using The Same” (The Regents of the University of Colorado, a body corporate, priority 2020, published 2022)",
  "key": {"VP16-Mediator binding": {"molecular_target": "T1, VP16-Mediator binding (Homo sapiens, UniProt Q71SY5+Q9NVC6)", "T1 construct": "endogenous in cells", "experiment": "In vitro binding assay, VP16AD-Mediator", "details": "bivalent peptide 5 μM"}, "[1]": {"test_system": "p53 target genes in HCT116 cells", "experiment": "RNA-Seq / GSEA in HCT116 cells, p53 pathway genes", "format": "cell-based, human", "experimental": "To circumvent this issue, we used a well-tested electroporation protocol to enhance cell uptake of the bivalent peptide (see Methods). HCT116 cells were evaluated either in the presence of bivalent peptide or vehicle (water), with or without Nutlin-3a (FIG. 3A, B). Nutlin-3a is a small molecule that activates and stabilizes p53 by inhibiting MDM2, a repressor of p53. […] After 3 h Nutlin-3a treatment (or DMSO control, ±bivalent peptide), nuclear RNA was isolated and biological replicate RNA-Seq libraries were prepared (FIG. 9A; Table 1).\nA confounding issue with these experiments was that cellular uptake of the bivalent peptide could not be accurately measured and could potentially vary from experiment-to-experiment. To assess this possibility more thoroughly, we completed an additional round of RNA-Seq experiments in control vs. Nutlin-treated HCT116 cells (FIG. 9B; Table 1). These additional experiments (RNA-Seq experiment 2) were completed with a slightly modified protocol that included treatment in serum-free media as an effort to enhance peptide uptake. Importantly, the data from RNA-Seq experiment 2 (biological triplicate; FIG. 10) were consistent with the first series of biological replicates (RNA-Seq experiment 1; FIG. 3C-E) and in each case, repression of p53-dependent transcription by the bivalent peptide tracked with Nutlin induction levels (FIG. 9CE). Nutlin-induced activation of p53 target genes was inhibited in the presence of the bivalent peptide, providing further evidence that the bivalent peptide blocks p53 response in cells. However, the scope and magnitude of the effect was reduced in this second, independent set of RNA-Seq experiments (e.g. compare FIG. 3C, D & FIG. 10C, D). This broadly consistent but variable magnitude effect can also be seen from RNA-Seq reads at specific p53 target genes (RNA-Seq experiment 1, FIG. 4A, B; RNA-Seq experiment 2, FIG. 4C, D). The overall p53 response to Nutlin-3a was reduced in RNA Seq experiment 2 (GSEA p53 pathway NES=2.76 in RNA-Seq experiment 1 vs. NES=1.59 in RNASeq experiment 2), which therefore reduced the transcriptional impact of the bivalent peptide. However, we cannot rule out variable cellular uptake of the bivalent peptide as a contributing factor.\nElectroporation of bivalent peptide into HCT116 cells (RNA-Seq experiment 1): Two 6-well plates (HCT116 cells) were grown to about 80% confluency. Cells were then trypsinized, washed with PBS, and resuspended in 150 μL Neon Buffer R. The cells were then split into two groups: No peptide and 10 μM peptide. The cells were then drawn into a 10 μL Neon pipet tip, electroporated and ejected into 2 mL of McCoy's 5A media without antibiotic. For each experiment, two cell electroporation aliquots were added to media containing either 0.1% DMSO (control) or 10 μM Nutlin-3a (in DMSO, to a final concentration of 0.1%). For wells containing cells electroporated with peptide, an additional 200 nM peptide was added to the well to allow for peptide uptake during the experiment. The 6-well plate was then placed back at 37° C. for 3 hours. After 3 hours, cells were scraped from the plates, transferred to a 15 mL conical vial, pelleted at 1,000×g, and washed in 10 mL phosphate buffered saline (PBS) solution. To isolate the nuclei, cells were resuspended in 10 mL lysis buffer (10 mM Tris-HCl, pH 7.4, 2 mM MgCl2, 3 mM CaCl2), 0.5% NP-40, 10% glycerol) and thoroughly mixed. The nuclei were spun down at 1,000×g for 10 minutes, the lysis buffer was removed, and 1 mL of TRIzol was added. The nuclear RNA was isolated as described in the TRIzol instructions, except an additional phenol/chloroform extraction and chloroform-only extraction were performed to reduce contaminants. RNA was precipitated and washed twice with 75% ethanol to further remove contaminants. The RNA was then converted to cDNA using the High Capacity cDNA kit from Thermo Fisher Scientific. […]"}},
  "note": "Bridge positions count the residues as written; N and C are the ends. Square brackets hold non-standard residues; d marks the D form. Peptide text beside a SMILES is read from it. PEG6 = NCCOCCOCCOCCOCCOCCOCCC(=O)O; R8 = C=CCCCCCC[C@@](C)(N)C(=O)O; S5 = C=CCCC[C@](C)(N)C(=O)O",
  "data": [
    {"smiles": "CC[C@H](C)[C@H](NC(=O)[C@H](CC(=O)O)NC(=O)[C@H](CC(=O)O)NC(=O)[C@@H]1CCCN1C(=O)[C@H](CO)NC(=O)[C@H](CC(C)C)NC(=O)CCOCCOCCOCCOCCOCCOCCNC(=O)[C@H](CCCNC(=N)N)NC(=O)[C@H](CCCNC(=N)N)NC(=O)[C@]1(C)CCCC=CCCCCCC[C@@](C)(NC(=O)[C@H](Cc2ccccc2)NC(=O)[C@H](CCCNC(=N)N)NC(=O)[C@H](CCC(=O)O)NC(=O)[C@H](CCC(N)=O)NC(=O)[C@H](CO)NC(=O)[C@H](CCCNC(=N)N)NC(C)=O)C(=O)N[C@@H](CC(=O)O)C(=O)N[C@@H](CC(C)C)C(=O)N[C@@H](Cc2c[nH]c3ccccc23)C(=O)N[C@@H](CCCCN)C(=O)N[C@@H](CCCNC(=N)N)C(=O)N[C@@H](CC(C)C)C(=O)N1)C(=O)N[C@@H](CCC(=O)O)C(=O)N[C@@H](CCC(N)=O)C(=O)N[C@@H](Cc1c[nH]c2ccccc12)C(=O)N[C@@H](Cc1ccccc1)C(=O)N[C@H](C(=O)N[C@@H](CCC(=O)O)C(=O)N[C@@H](CC(=O)O)C(N)=O)[C@@H](C)O", "note": "[bivalent peptide] (Ac-RSQERF[R8]DLWKRL[S5]RR[PEG6]LSPDDIEQWFTED-NH2; staple 7-14; N-terminus assumed)", "values": [
      {"measurement": "effect on VP16AD binding to Mediator", "setting": "VP16-Mediator binding", "result": "did not reduce VP16AD binding to Mediator"},
      {"measurement": "increase in Mediator-bound VP16 in +peptide experiments (GST-VP16 normalized to MED15)", "setting": "VP16-Mediator binding; n=2", "result": 1.67, "unit": "fold"},
      {"measurement": "GSEA p53 pathway NES, Nutlin response in peptide-treated cells", "setting": "[1]; RNA-Seq experiment 1, +Nutlin", "result": 1.97},
      {"measurement": "GSEA p53 pathway NES, Nutlin response in peptide-treated cells", "setting": "[1]; RNA-Seq experiment 2, +Nutlin", "result": 0.92},
      {"measurement": "Nutlin-induced activation of p53 target genes in peptide-treated cells", "setting": "[1]; electroporated 10 μM peptide, Nutlin-3a 10 μM, 3 h, HCT116", "result": "diminished"},
      {"measurement": "p53 activation by peptide alone", "setting": "[1]; no Nutlin, vs. untreated controls, HCT116", "result": "modest p53 activation"}
    ]}
  ]
}
